Reference: the CheMixHub ionic liquid set
± gives the uncertainty stated by the source.

Test: xn = mol fraction of the nth substance listed

O=C([O-])C1=NN(c2ccc(S(=O)(=O)[O-])cc2)C(=O)C1N=Nc1ccc(S(=O)(=O)[O-])cc1.[Na+].[Na+].[Na+] (stereo not given) + C[N+](C)(C)Cc1ccccc1.[Cl-] + O
electrical conductivity [S/m], 101.3 kPa, frequency 0.001 MHz
Details	298.15 K	308.15 K	318.15 K
x1 = 0.0001802, x2 = 1.802e-05	0.132 ± 0.014	0.158 ± 0.017	0.197 ± 0.021
x1 = 0.0001803, x2 = 5.405e-05	0.142 ± 0.015	0.177 ± 0.018	0.213 ± 0.022
x1 = 0.0001803, x2 = 9.008e-05	0.168 ± 0.017	0.187 ± 0.019	0.228 ± 0.023
x1 = 0.0004504, x2 = 1.801e-05	0.231 ± 0.023	0.276 ± 0.028	0.355 ± 0.036
x1 = 0.0004505, x2 = 5.403e-05	0.254 ± 0.026	0.317 ± 0.032	0.388 ± 0.039
x1 = 0.0004507, x2 = 9.005e-05	0.303 ± 0.031	0.331 ± 0.033	0.413 ± 0.042
x1 = 0.0007204, x2 = 1.801e-05	0.331 ± 0.033	0.392 ± 0.04	0.498 ± 0.05
x1 = 0.0007206, x2 = 5.402e-05	0.359 ± 0.036	0.447 ± 0.045	0.535 ± 0.054
x1 = 0.0007209, x2 = 9.003e-05	0.419 ± 0.043	0.477 ± 0.048	0.558 ± 0.056
x1 = 0.0009903, x2 = 1.8e-05	0.421 ± 0.042	0.512 ± 0.052	0.641 ± 0.064
x1 = 0.0009906, x2 = 5.4e-05	0.463 ± 0.047	0.588 ± 0.059	0.677 ± 0.068
x1 = 0.0009909, x2 = 9e-05	0.57 ± 0.058	0.614 ± 0.062	0.723 ± 0.072
x1 = 0.00126, x2 = 1.8e-05	0.519 ± 0.052	0.638 ± 0.064	0.777 ± 0.078
x1 = 0.00126, x2 = 5.399e-05	0.583 ± 0.059	0.716 ± 0.072	0.826 ± 0.083
x1 = 0.001261, x2 = 8.998e-05	0.684 ± 0.069	0.739 ± 0.074	0.863 ± 0.086
x1 = 0.00153, x2 = 1.799e-05	0.641 ± 0.065	0.753 ± 0.076	0.915 ± 0.092
x1 = 0.00153, x2 = 5.397e-05	0.705 ± 0.071	0.841 ± 0.084	0.972 ± 0.097
x1 = 0.001531, x2 = 8.995e-05	0.812 ± 0.082	0.88 ± 0.088	1.01 ± 0.1

viscosity [mPa·s], 101.3 kPa
Details	298.15 K	308.15 K	318.15 K
x1 = 0.0001802, x2 = 1.802e-05	0.905 ± 0.045	0.747 ± 0.044	0.629 ± 0.044
x1 = 0.0001803, x2 = 5.405e-05	0.923 ± 0.045	0.769 ± 0.044	0.646 ± 0.044
x1 = 0.0001803, x2 = 9.008e-05	0.941 ± 0.045	0.789 ± 0.045	0.666 ± 0.044
x1 = 0.0004504, x2 = 1.801e-05	0.923 ± 0.045	0.764 ± 0.044	0.644 ± 0.044
x1 = 0.0004505, x2 = 5.403e-05	0.944 ± 0.045	0.788 ± 0.045	0.664 ± 0.044
x1 = 0.0004507, x2 = 9.005e-05	0.962 ± 0.045	0.809 ± 0.045	0.685 ± 0.044
x1 = 0.0007204, x2 = 1.801e-05	0.938 ± 0.045	0.778 ± 0.044	0.658 ± 0.044
x1 = 0.0007206, x2 = 5.402e-05	0.962 ± 0.045	0.803 ± 0.045	0.679 ± 0.044
x1 = 0.0007209, x2 = 9.003e-05	0.983 ± 0.045	0.826 ± 0.045	0.701 ± 0.044
x1 = 0.0009903, x2 = 1.8e-05	0.952 ± 0.045	0.791 ± 0.044	0.67 ± 0.044
x1 = 0.0009906, x2 = 5.4e-05	0.977 ± 0.045	0.818 ± 0.045	0.693 ± 0.044
x1 = 0.0009909, x2 = 9e-05	1 ± 0.045	0.842 ± 0.045	0.717 ± 0.044
x1 = 0.00126, x2 = 1.8e-05	0.964 ± 0.045	0.803 ± 0.045	0.681 ± 0.044
x1 = 0.00126, x2 = 5.399e-05	0.992 ± 0.045	0.832 ± 0.045	0.707 ± 0.044
x1 = 0.001261, x2 = 8.998e-05	1.015 ± 0.045	0.858 ± 0.045	0.731 ± 0.044
x1 = 0.00153, x2 = 1.799e-05	0.977 ± 0.045	0.815 ± 0.045	0.693 ± 0.044
x1 = 0.00153, x2 = 5.397e-05	1.007 ± 0.045	0.847 ± 0.045	0.72 ± 0.044
x1 = 0.001531, x2 = 8.995e-05	1.032 ± 0.045	0.873 ± 0.045	0.746 ± 0.044

CO + C[N+](C)(CCCS(=O)(=O)O)C1CCCCC1.Cc1ccc(S(=O)(=O)[O-])cc1
101 kPa, x2 = 0
Details	viscosity [mPa·s]
303.15 K	0.5044
308.15 K	0.4775
313.15 K	0.4515
318.15 K	0.4244
323.15 K	0.4033
328.15 K	0.3883

CCCC[n+]1ccn(C)c1.[I-] + F[B-](F)(F)F.[Li+]
Details	electrical conductivity [S/m]
308.15 K, 101 kPa, x2 = 0	0.0286 ± 0.004

CC[n+]1ccn(C)c1.O=S(=O)([N-]S(=O)(=O)C(F)(F)F)C(F)(F)F + F[B-](F)(F)F.[Li+]
101 kPa, x1 = 1
Details	electrical conductivity [S/m]
288.15 K	0.611 ± 0.061
298.15 K	0.883 ± 0.089
333.15 K	2.18 ± 0.22

CC[n+]1ccn(C)c1.O=S(=O)([N-]S(=O)(=O)C(F)(F)F)C(F)(F)F + F[P-](F)(F)(F)(F)F.[Li+]
101 kPa, x1 = 1
Details	electrical conductivity [S/m]
288.15 K	0.611 ± 0.061
298.15 K	0.883 ± 0.089
333.15 K	2.18 ± 0.22

C[N+](CCO)(CCO)CCOCCO.[Cl-] + NC(N)=O
100 kPa, x1 = 0.5
Details	viscosity [mPa·s]
328.15 K	560 ± 32
343.15 K	221 ± 8
348.15 K	169 ± 6
353.15 K	131 ± 4

CC(O)C(=O)[O-].C[N+](C)(C)CCO + O
101 kPa
Details	viscosity [mPa·s]
293.15 K, x2 = 0.0272	5800
293.15 K, x2 = 0.5026	174.9 ± 3.2
293.15 K, x2 = 0.7993	26.26 ± 0.22
293.15 K, x2 = 0.8998	7.312 ± 0.061
298.15 K, x2 = 0	559 ± 19
298.15 K, x2 = 0.4038	187.4 ± 3.6
298.15 K, x2 = 0.5858	87.96 ± 0.98
298.15 K, x2 = 0.7993	20.92 ± 0.17
303.15 K, x2 = 0.0992	308.5 ± 8.1
308.15 K, x2 = 0.3008	144.2 ± 2.4
308.15 K, x2 = 0.8998	4.497 ± 0.038
313.15 K, x2 = 0.8998	3.897 ± 0.033
318.15 K, x2 = 0.7993	9.616 ± 0.08
323.15 K, x2 = 0.701	15.61 ± 0.14
323.15 K, x2 = 0.7993	8.175 ± 0.068
328.15 K, x2 = 0.7993	7.029 ± 0.059
333.15 K, x2 = 0.2048	52.54 ± 0.57
333.15 K, x2 = 0.3008	43.97 ± 0.46
333.15 K, x2 = 0.701	11.18 ± 0.097
348.15 K, x2 = 0.8998	1.767 ± 0.016
353.15 K, x2 = 0.0992	30 ± 0.36
353.15 K, x2 = 0.7993	3.729 ± 0.032
353.15 K, x2 = 0.8998	1.614 ± 0.014

CCC(=O)[O-].COCCn1cc[n+](C)c1 + O
100 kPa
Details	electrical conductivity [S/m]	viscosity [mPa·s]
288.15 K, x1 = 0.8302	0.318 ± 0.02	81.8 ± 1.4
288.15 K, x1 = 0.8877	0.241 ± 0.02	96.6 ± 2.2
288.15 K, x1 = 1	0.109 ± 0.02	125.5 ± 3.9
293.15 K, x1 = 0.9474	0.222 ± 0.02	84.9 ± 1.6
298.15 K, x1 = 0.8302	0.426 ± 0.02	46.94 ± 0.55
298.15 K, x1 = 0.9474	0.285 ± 0.02	63.84 ± 0.71
298.15 K, x1 = 1	0.228 ± 0.02	70.11 ± 0.86
303.15 K, x1 = 0.8579	0.483 ± 0.02	39.8 ± 0.53
313.15 K, x1 = 0.9474	0.588 ± 0.02	31.35 ± 0.48
318.15 K, x1 = 0.8579	0.839 ± 0.02	20 ± 0.44
318.15 K, x1 = 0.9474	0.726 ± 0.02	24.42 ± 0.45
